Experimental data from the Deep4Chem optical property database.

Assay: solvent given as SMILES

SMILES: CCCCC(CC)Cn1c2cc(C#N)c(-c3ccc(N(c4ccccc4)c4ccccc4)cc3)cc2c2cc(-c3ccc(N(c4ccccc4)c4ccccc4)cc3)c(C#N)cc21 (stereo not drawn)
- emission maximum (in C1CCCCC1): 450 nm
- emission maximum (in C1CCOC1): 494 nm
- emission maximum (in CC#N): 542 nm
- emission maximum (in CCCCOCCCC): 464 nm
- emission maximum (in CCN(CC)CC): 464.65 nm
- emission maximum (in CCOC(C)=O): 494 nm
- emission maximum (in CCOCC): 472 nm
- emission maximum (in CN(C)C=O): 542 nm
- emission maximum (in Cc1ccccc1): 473 nm
- emission maximum (in ClC=C(Cl)Cl): 478 nm
- emission maximum (in ClCCl): 513 nm

SMILES: CC1(C)c2ccccc2-c2sc3ccccc3c21
- emission maximum (in ClCCl): 354 nm

SMILES: N#CC1=C(N)n2c(=O)c3ccccc3c(=O)n2C1c1ccc([N+](=O)[O-])cc1 (stereo not drawn)
- emission maximum (in CS(C)=O): 575 nm

SMILES: Cc1ccc(C2=C3C=CC4=[N+]3[P-](=O)(=O)n3c2ccc3-c2ccc([nH]2)/C(c2ccc(C)cc2)=c2/cc/c(o2)=C(\c2ccc(C)cc2)c2ccc4[nH]2)cc1
- emission maximum (in ClC(Cl)Cl): 714 nm

SMILES: COC(=O)C(NC(=O)OC(C)(C)C)c1ccc2oc(-c3ccc(OC(=O)c4ccccc4)cc3O)nc2c1 (stereo not drawn)
- emission maximum (in CC1CCCCC1): 480 nm
- emission maximum (in CC#N): 471 nm
- emission maximum (in CO): 405 nm

SMILES: COc1ccc2cc(-c3ccc(C(F)(F)F)cc3)oc(=O)c2c1
- emission maximum (in CCCCCC): 397 nm
- emission maximum (in CCCCCCCCO): 410 nm
- emission maximum (in CCCCO): 411 nm
- emission maximum (in CCCO): 410 nm
- emission maximum (in CCO): 412 nm
- emission maximum (in CCOC(C)=O): 404 nm
- emission maximum (in CN(C)C=O): 411 nm
- emission maximum (in CO): 413 nm
- emission maximum (in ClC(Cl)Cl): 409 nm

SMILES: COc1ccc(-c2cc(-c3ccc(C)cc3)nc3c(C#N)c(N4CCCC4)nc(N)c23)cc1
- emission maximum (in CC#N): 521 nm
- emission maximum (in CC(C)=O): 517 nm
- emission maximum (in CC(C)O): 511 nm
- emission maximum (in CO): 519 nm
- emission maximum (in ClC(Cl)Cl): 504 nm
- emission maximum (in ClCCl): 509 nm
- emission maximum (in c1ccccc1): 513 nm

SMILES: CCCn1c2cccc3c2[c+]2c4c1cccc4n(CCC)c1cccc(c12)n3CCC
- emission maximum (in CC#N): 557 nm

SMILES: CN(C)c1ccc(/C=C/C(=O)c2ccc(Cl)cc2)cc1
- emission maximum (in C1CCOC1): 516 nm
- emission maximum (in CC#N): 540 nm
- emission maximum (in CC(=O)O): 521 nm
- emission maximum (in CC(C)=O): 532 nm
- emission maximum (in CCO): 542 nm
- emission maximum (in CN(C)C=O): 542 nm
- emission maximum (in CO): 544 nm
- emission maximum (in Cc1ccccc1): 486 nm
- emission maximum (in ClC(Cl)Cl): 522 nm
- emission maximum (in c1ccccc1): 488 nm

SMILES: CC(C)(C)c1ccc(-c2cc(-c3ccc(-c4cc(-c5ccc(C(C)(C)C)cc5)c(C(=O)NCc5cccs5)s4)s3)sc2C(=O)NCc2cccs2)cc1
- emission maximum (in ClCCl): 450 nm

SMILES: Cc1c(C)c2c3ccccc3[nH]c2c2ccccc12
- emission maximum (in ClCCl): 370 nm

SMILES: CC(=O)c1c2c(cc3cc(N(C)C)ccc13)CCC2
- emission maximum (in C1CCCCC1): 445 nm
- emission maximum (in C1CCOC1): 505 nm
- emission maximum (in C1COCCO1): 495 nm
- emission maximum (in CC#N): 545 nm
- emission maximum (in CCO): 605 nm
- emission maximum (in CS(C)=O): 558 nm
- emission maximum (in Cc1ccccc1): 481 nm
- emission maximum (in ClC(Cl)Cl): 511 nm
- emission maximum (in ClCCl): 509 nm

SMILES: CCC1=C(C)C(=O)n2c1cc1c(C)c(CCC(=O)O)c(C)n1c2=O
- emission maximum (in CO): 535 nm
- emission maximum (in CS(C)=O): 510 nm
- emission maximum (in ClC(Cl)Cl): 490 nm
- emission maximum (in c1ccccc1): 480 nm

SMILES: CCN(CC)c1ccc(-c2ccc(-c3nc4ccccc4c(=O)[nH]3)s2)cc1
- emission maximum (in CC#N): 541 nm
- emission maximum (in Cc1ccccc1): 490 nm

SMILES: c1ccc(-n2c(-c3cccc4ccccc34)nc3c4ccccc4c4ccccc4c32)cc1
- emission maximum (in C1CCOC1): 413.91 nm
- emission maximum (in CCCCCC): 384 nm
- emission maximum (in CS(C)=O): 423 nm
- emission maximum (in Cc1ccccc1): 410 nm
- emission maximum (in ClCCl): 415.6 nm

SMILES: CCC(C)(C)c1ccc2c(c1)C(CCOC)(CCOC)c1cc(-c3ccc(-c4ccc5c(c4)C(CCOC)(CCOC)c4cc(C(C)(C)CC)ccc4-5)cc3)ccc1-2
- emission maximum (in C1CCCCC1): 380 nm

SMILES: O=c1c2ccccc2n(-c2ccc(-c3ccc(-n4c5ccccc5c(=O)c5ccccc54)cc3)cc2)c2ccccc12
- emission maximum (in ClCCl): 405 nm
